Assay results as given in patent publication US20090118286A1, “Heterobicyclic Acrylamides” (Bayer Cropscience AG, priority 2005, published 2009).

Experiment: log P determination by HPLC (EEC Directive 79/831 Annex V.A8, gradient method)
Type: physicochemical

SMILES | Physical data (logP) | Physical data: log P
O=C(/C=C/c1c(-c2ccccc2Cl)nc2sc(C(F)(F)F)nn12)NC1CCCCC1 [Example 0155] | 3.9 | 
CCC(NC(=O)C=Cc1c(-c2ccccc2Cl)nc2sc(C(F)(F)F)nn12)C1CCCCC1 (stereo not drawn) [Example 0196] | 4.82 | 
O=C(/C=C/c1c(-c2ccccc2Cl)nc2sc(C(F)(F)F)nn12)NCCc1ccc(Cl)cc1 [Example 0199] | 4.09 | 
O=C(/C=C/c1c(-c2ccccc2Cl)nc2sc(C(F)(F)F)nn12)NOCC1CC1 [Example 0211] | 3.18 | 
CCN(CC)C(=O)/C=C/c1c(-c2ccccc2Cl)nc2sc(C(F)(F)F)nn12 [Example 0221] |  | 3.61
O=C(/C=C/c1c(-c2ccccc2Cl)nc2sc(C(F)(F)F)nn12)N1CCCCC1 [Example 0222] |  | 3.76
Cc1ccccc1-c1nc2sc(C(F)(F)F)nn2c1/C=C/C(=O)NC(C)(C)C [Example 0231] |  | 3.85
Cc1ccccc1-c1nc2sc(C(F)(F)F)nn2c1/C=C/C(=O)NC1CC1 [Example 0233] |  | 2.99
Cc1ccccc1-c1nc2sc(C(F)(F)F)nn2c1/C=C/C(=O)NC1CCC1 [Example 0234] |  | 3.41
Cc1ccccc1-c1nc2sc(C(F)(F)F)nn2c1/C=C/C(=O)NC1CCCC1 [Example 0235] |  | 3.68
Cc1ccccc1-c1nc2sc(C(F)(F)F)nn2c1/C=C/C(=O)NC1CCCCC1 [Example 0236] |  | 4.03
Cc1ccccc1-c1nc2sc(C(F)(F)F)nn2c1/C=C/C(=O)NCC1CC1 [Example 0237] |  | 3.37
CCC(NC(=O)C=Cc1c(-c2ccccc2C)nc2sc(C(F)(F)F)nn12)C1CCCCC1 (stereo not drawn) [Example 0267] |  | 4.92
Cc1ccccc1-c1nc2sc(C(F)(F)F)nn2c1/C=C/C(=O)NOCC1CC1 [Example 0282] |  | 3.26
CCN(CC)C(=O)/C=C/c1c(-c2ccccc2C)nc2sc(C(F)(F)F)nn12 [Example 0292] |  | 3.75
Cc1ccccc1-c1nc2sc(C(F)(F)F)nn2c1/C=C/C(=O)N1CCCCC1 [Example 0293] |  | 3.85
Cc1ccccc1-c1nc2sc(C(F)(F)F)nn2c1/C=C/C(=O)N1CCOCC1 [Example 0294] |  | 2.91
O=C(/C=C/c1c(-c2ccc(F)cc2)nc2sc(C(F)(F)F)nn12)N1CCCCC1 [Example 0364] |  | 3.85
O=C(/C=C/c1c(-c2ccc(F)cc2)nc2sc(C(F)(F)F)nn12)N1CCOCC1 [Example 0365] |  | 2.91
CC(C)NC(=O)/C=C/c1c(-c2cccc(C(F)(F)F)c2)nc2sc(C(F)(F)F)nn12 [Example 0371] |  | 3.85
CC(C)(C)NC(=O)/C=C/c1c(-c2cccc(C(F)(F)F)c2)nc2sc(C(F)(F)F)nn12 [Example 0373] |  | 4.41
O=C(/C=C/c1c(-c2cccc(C(F)(F)F)c2)nc2sc(C(F)(F)F)nn12)NC1CC1 [Example 0375] |  | 3.59

SMILES | Physical data (logP) | Physical data: log P
O=C(/C=C/c1c(-c2cccc(C(F)(F)F)c2)nc2sc(C(F)(F)F)nn12)NC1CCC1 [Example 0376] |  | 4.03
O=C(/C=C/c1c(-c2cccc(C(F)(F)F)c2)nc2sc(C(F)(F)F)nn12)NC1CCCC1 [Example 0377] |  | 4.27
O=C(/C=C/c1c(-c2cccc(C(F)(F)F)c2)nc2sc(C(F)(F)F)nn12)NC1CCCCC1 [Example 0378] |  | 4.61
O=C(/C=C/c1c(-c2cccc(C(F)(F)F)c2)nc2sc(C(F)(F)F)nn12)NCC1CC1 [Example 0379] |  | 3.94
CCC(C)NC(=O)/C=C/c1c(-c2cccc(C(F)(F)F)c2)nc2sc(C(F)(F)F)nn12 (stereo not drawn) [Example 0380] |  | 4.18
CCCC(C)NC(=O)/C=C/c1c(-c2cccc(C(F)(F)F)c2)nc2sc(C(F)(F)F)nn12 (stereo not drawn) [Example 0381] |  | 4.56
COCC(C)NC(=O)/C=C/c1c(-c2cccc(C(F)(F)F)c2)nc2sc(C(F)(F)F)nn12 (stereo not drawn) [Example 0382] |  | 3.68
CC(C)C(C)NC(=O)/C=C/c1c(-c2cccc(C(F)(F)F)c2)nc2sc(C(F)(F)F)nn12 (stereo not drawn) [Example 0387] |  | 4.46
CC(NC(=O)/C=C/c1c(-c2cccc(C(F)(F)F)c2)nc2sc(C(F)(F)F)nn12)C(F)(F)F (stereo not drawn) [Example 0388] |  | 4.27
CCC(NC(=O)C=Cc1c(-c2cccc(C(F)(F)F)c2)nc2sc(C(F)(F)F)nn12)C1CCCCC1 (stereo not drawn) [Example 0409] |  | 5.48
O=C(/C=C/c1c(-c2cccc(C(F)(F)F)c2)nc2sc(C(F)(F)F)nn12)NOCC1CC1 [Example 0424] |  | 3.81
CCC(CC)NC(=O)/C=C/c1c(-c2cccc(C(F)(F)F)c2)nc2sc(C(F)(F)F)nn12 [Example 0428] |  | 4.41
CN(C)C(=O)/C=C/c1c(-c2cccc(C(F)(F)F)c2)nc2sc(C(F)(F)F)nn12 [Example 0429] |  | 3.68
CCN(C)C(=O)/C=C/c1c(-c2cccc(C(F)(F)F)c2)nc2sc(C(F)(F)F)nn12 [Example 0430] |  | 4.05
C=CCN(C)C(=O)/C=C/c1c(-c2cccc(C(F)(F)F)c2)nc2sc(C(F)(F)F)nn12 [Example 0431] |  | 4.22
CON(C)C(=O)/C=C/c1c(-c2cccc(C(F)(F)F)c2)nc2sc(C(F)(F)F)nn12 [Example 0433] |  | 4.01
CCN(CC)C(=O)/C=C/c1c(-c2cccc(C(F)(F)F)c2)nc2sc(C(F)(F)F)nn12 [Example 0434] |  | 4.42
O=C(/C=C/c1c(-c2cccc(C(F)(F)F)c2)nc2sc(C(F)(F)F)nn12)N1CCCCC1 [Example 0435] |  | 4.51
O=C(/C=C/c1c(-c2cccc(C(F)(F)F)c2)nc2sc(C(F)(F)F)nn12)N1CCOCC1 [Example 0436] |  | 3.55
CC(C)(C)NC(=O)/C=C/c1c(-c2ccccc2F)nc2sc(C(F)(F)F)nn12 [Example 0444] |  | 3.55
CCN(CC)C(=O)/C=C/c1c(-c2ccccc2F)nc2sc(C(F)(F)F)nn12 [Example 0505] |  | 3.45
O=C(/C=C/c1c(-c2ccccc2F)nc2sc(C(F)(F)F)nn12)N1CCCCC1 [Example 0506] |  | 3.59

Other lines, results leading:

Physical data (logP) | Physical data: log P | SMILES
4.08 |  | CCC(NC(=O)C=Cc1c(-c2ccccc2Cl)nc2sc(C(F)(F)F)nn12)c1ccccc1 (stereo not drawn) [Example 0190]
3.7 |  | O=C(/C=C/c1c(-c2ccccc2Cl)nc2sc(C(F)(F)F)nn12)NCc1ccc(F)cc1 [Example 0191]
 | 3.94 | Cc1ccccc1-c1nc2sc(C(F)(F)F)nn2c1/C=C/C(=O)NC(C)c1ccccc1 (stereo not drawn) [Example 0260]
 | 4.18 | CCC(NC(=O)C=Cc1c(-c2ccccc2C)nc2sc(C(F)(F)F)nn12)c1ccccc1 (stereo not drawn) [Example 0261]
 | 4.18 | Cc1ccccc1-c1nc2sc(C(F)(F)F)nn2c1/C=C/C(=O)NC(C)COc1ccccc1 (stereo not drawn) [Example 0265]
 | 3.81 | Cc1ccccc1-c1nc2sc(C(F)(F)F)nn2c1/C=C/C(=O)NOC(C)c1ccccc1 (stereo not drawn) [Example 0284]
 | 3.81 | CC(C)(C)NC(=O)/C=C/c1c(-c2ccc(F)cc2)nc2sc(C(F)(F)F)nn12 [Example 0302]
 | 2.95 | O=C(/C=C/c1c(-c2ccc(F)cc2)nc2sc(C(F)(F)F)nn12)NC1CC1 [Example 0304]
 | 3.41 | O=C(/C=C/c1c(-c2ccc(F)cc2)nc2sc(C(F)(F)F)nn12)NC1CCC1 [Example 0305]
 | 3.63 | O=C(/C=C/c1c(-c2ccc(F)cc2)nc2sc(C(F)(F)F)nn12)NC1CCCC1 [Example 0306]
 | 3.99 | O=C(/C=C/c1c(-c2ccc(F)cc2)nc2sc(C(F)(F)F)nn12)NC1CCCCC1 [Example 0307]
 | 3.33 | O=C(/C=C/c1c(-c2ccc(F)cc2)nc2sc(C(F)(F)F)nn12)NCC1CC1 [Example 0308]
 | 3.55 | CCC(C)NC(=O)/C=C/c1c(-c2ccc(F)cc2)nc2sc(C(F)(F)F)nn12 (stereo not drawn) [Example 0309]
 | 3.9 | CCCC(C)NC(=O)/C=C/c1c(-c2ccc(F)cc2)nc2sc(C(F)(F)F)nn12 (stereo not drawn) [Example 0310]
 | 3.07 | COCC(C)NC(=O)/C=C/c1c(-c2ccc(F)cc2)nc2sc(C(F)(F)F)nn12 (stereo not drawn) [Example 0311]
 | 3.81 | CC(C)C(C)NC(=O)/C=C/c1c(-c2ccc(F)cc2)nc2sc(C(F)(F)F)nn12 (stereo not drawn) [Example 0316]
 | 3.9 | CC(NC(=O)/C=C/c1c(-c2ccc(F)cc2)nc2sc(C(F)(F)F)nn12)c1ccccc1 (stereo not drawn) [Example 0331]
 | 4.18 | CCC(NC(=O)C=Cc1c(-c2ccc(F)cc2)nc2sc(C(F)(F)F)nn12)c1ccccc1 (stereo not drawn) [Example 0332]
 | 4.13 | CC(COc1ccccc1)NC(=O)/C=C/c1c(-c2ccc(F)cc2)nc2sc(C(F)(F)F)nn12 (stereo not drawn) [Example 0336]
 | 4.92 | CCC(NC(=O)C=Cc1c(-c2ccc(F)cc2)nc2sc(C(F)(F)F)nn12)C1CCCCC1 (stereo not drawn) [Example 0338]
 | 2.45 | CC(NC(=O)/C=C/c1c(-c2ccc(F)cc2)nc2sc(C(F)(F)F)nn12)c1ccccn1 (stereo not drawn) [Example 0345]
 | 3.81 | CC(ONC(=O)/C=C/c1c(-c2ccc(F)cc2)nc2sc(C(F)(F)F)nn12)c1ccccc1 (stereo not drawn) [Example 0355]
 | 3.81 | CCC(CC)NC(=O)/C=C/c1c(-c2ccc(F)cc2)nc2sc(C(F)(F)F)nn12 [Example 0357]
 | 3.72 | CCN(CC)C(=O)/C=C/c1c(-c2ccc(F)cc2)nc2sc(C(F)(F)F)nn12 [Example 0363]
 | 4.46 | CC(NC(=O)/C=C/c1c(-c2cccc(C(F)(F)F)c2)nc2sc(C(F)(F)F)nn12)c1ccccc1 (stereo not drawn) [Example 0402]
 | 4.72 | CCC(NC(=O)C=Cc1c(-c2cccc(C(F)(F)F)c2)nc2sc(C(F)(F)F)nn12)c1ccccc1 (stereo not drawn) [Example 0403]
 | 4.67 | CC(COc1ccccc1)NC(=O)/C=C/c1c(-c2cccc(C(F)(F)F)c2)nc2sc(C(F)(F)F)nn12 (stereo not drawn) [Example 0407]
 | 4.37 | CC(ONC(=O)/C=C/c1c(-c2cccc(C(F)(F)F)c2)nc2sc(C(F)(F)F)nn12)c1ccccc1 (stereo not drawn) [Example 0426]
